Measured values as given in US10273242B2, “Compound inhibiting activities of BTK and/or JAK3 kinases” (BEIJING HANMI PHARMACEUTICAL CO., LTD., priority 2013, dated 2019).

What was measured:
[1] = biological target: T1, BTK kinase (Homo sapiens, UniProt Q06187); assay: BTK kinase activity inhibition assay (ADP-Glo); format: biochemical; conditions: ATP 50 μM
T1 construct: purchased Invitrogen PV3363
Description: The BTK kinase (purchased from Invitrogen, No.: PV3363) was diluted with reaction buffer (40 mM Tris-HCl, pH 7.5; 20 mM MgCl2, 0.1 mg/ml BSA; 1 mM DTT; 2 mM MnCl2) to 2 times of the final concentration (which is 1.1 ng/μL) and added with 5 μL/well to a 96-well plate. The compounds of the present invention were serial diluted with deionized water to four times (i.e., 40 μM, 4 μM, 0.4 μM, 80 nM, 16 nM, 3.2 nM, respectively) of the final concentrations (10 μM, 1 μM, 0.1 μM, 20 nM, 4 nM, 0.8 nM, respectively), and added at 2.5 μL/well to the test wells of the 96-well plate. After incubation at 25° C. for 10 minutes, ATP (50 μM) (purchased from Promega, No.: V9102) and 0.2 μg/μL of Poly E4Y1 (purchased from Sigma, No.: P0275-25MG) were added with 2.5 μL/well and incubated at 25° C. for 120 minutes. After the reaction was completed, 10 μL of the ADP-Glo reagent (ADP-Glo™ kinase assay kit, purchased from Promega, No.: V9102) was added to each well, and reacted at 25° C. for 40 minutes. Then 20 μL of the ADP-Glo kinase detection reagent was added to each well and reacted at 25° C. for 30 minutes. The kinase activity was detected by luminescence using the ADP-Glo kinase assay kit according to the manufacture's instruction, and IC50 values of the compounds of the present invention were calculated.

[2] = biological target: T2, JAK3 kinase (Homo sapiens, UniProt P52333); assay: JAK3 kinase activity inhibition assay (ADP-Glo); format: biochemical; conditions: ATP 10 μM
T2 construct: purchased SignalChem J03-11G
Description: The JAK3 kinase (purchased from SignalChem, No.: J03-11G) was diluted with reaction buffer (40 mM Tris-HCl, pH 7.5; 20 mM MgCl2, 0.1 mg/ml BSA; 1 mM DTT) to 2 times of the final concentration (which is 0.5 ng/μL) and added with 5 μL/well to a 96-well plate. The compounds of the present invention were serial diluted with deionized water to four times (i.e., 40 μM, 4 μM, 0.4 μM, 80 nM, 16 nM, 3.2 nM, respectively) of the final concentrations (10 μM, 1 μM, 0.1 μM, 20 nM, 4 nM, 0.8 nM, respectively), and added with 2.5 μL/well to the test wells of the 96-well plate. After incubation at 25° C. for 10 minutes, 10 μM of ATP (purchased from Promega, No.: V9102) and 0.2 μg/μL of Poly E4Y1 (purchased from Sigma, No.: P0275-25MG) were added at 2.5 μL/well and reacted at 25° C. for 60 minutes. After the reaction was completed, 10 μL of the ADP-Glo reagent (ADP-Glo™ kinase assay kit, purchased from Promega, No.: V9102) was added to each well and reacted at 25° C. for 40 minutes. Then 20 μL of the ADP-Glo kinase detection reagent was added to each well and reacted at 25° C. for 30 minutes. The kinase activity was detected by luminescence using the ADP-Glo kinase assay kit according to the manufacture's instruction, and IC50 values of the compounds of the present invention were calculated.

[3] = system: CTLL-2 cells; assay: IL-2 induced CTLL-2 cell proliferation assay (CCK-8); format: cell-based; conditions: Mus musculus, IL-2 induced proliferation, 24 hours
Description: The compounds of the present invention were serial diluted with RPMI-1640 complete medium (purchased from Gibco, No.: 22440) to three times (i.e., 3 μM, 0.6 μM, 120 nM, 24 nM, 4.8 nM, 0.96 nM, respectively) of the final concentrations (1 μM, 0.2 μM, 40 nM, 8 nM, 1.6 nM, 0.32 nM, respectively), and added at 50 μL/well to the test wells of a 96-well plate. Control wells with IL-2 (referred to as IL-2^+) (IL-2 was purchased from R & D, No.: 402-ML-020/CF) and without IL-2 (referred to as IL-2^−) (with addition of 50 μL of the medium). CTLL-2 cells (purchased from ATCC, No.: TIB-214) at the logarithmic growth phase were rinsed with PBS buffer (pH 7.2), then resuspended in RPMI-1640 complete medium without IL-2, and seeded at 50000 cells/50 μL/well in the 96-well plate. The plate was placed at 37° C., 5% CO2 and pre-incubated for 1 hour. Then, to the test wells and the IL-2^+ control well RPMI-1640 complete medium containing IL-2 (50 μL/well) was added, while to the IL-2^− control well RPMI-1640 complete medium without IL-2 (50 μL/well) was added. The cells were stimulated for 24 hours at 37° C., 5% CO2. After this, the 96-well plate was taken out from the incubator. […] Absorption was determined at 450 nm of wavelength, and IC50 values of the compounds of the present invention were thereby calculated.

T1 sequence (Q06187 whole entry): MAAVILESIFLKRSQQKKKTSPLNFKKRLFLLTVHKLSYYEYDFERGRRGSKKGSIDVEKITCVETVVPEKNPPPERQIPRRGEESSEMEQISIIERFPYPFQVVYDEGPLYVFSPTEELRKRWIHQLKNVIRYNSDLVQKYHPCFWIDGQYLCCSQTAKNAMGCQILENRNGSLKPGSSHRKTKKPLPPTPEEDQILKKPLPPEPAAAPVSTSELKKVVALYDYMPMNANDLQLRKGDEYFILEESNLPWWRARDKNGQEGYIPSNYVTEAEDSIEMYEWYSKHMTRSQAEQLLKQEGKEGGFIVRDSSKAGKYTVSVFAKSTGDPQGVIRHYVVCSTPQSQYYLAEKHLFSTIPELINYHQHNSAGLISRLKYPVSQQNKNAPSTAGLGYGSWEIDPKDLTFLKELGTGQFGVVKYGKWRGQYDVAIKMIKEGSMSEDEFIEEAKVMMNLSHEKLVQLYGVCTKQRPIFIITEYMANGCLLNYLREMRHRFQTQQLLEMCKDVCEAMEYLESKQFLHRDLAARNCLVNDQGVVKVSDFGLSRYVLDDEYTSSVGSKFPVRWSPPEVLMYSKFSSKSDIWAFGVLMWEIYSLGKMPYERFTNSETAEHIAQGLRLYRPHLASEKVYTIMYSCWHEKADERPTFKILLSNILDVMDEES
T2 sequence (P52333 781-1124 limits assumed): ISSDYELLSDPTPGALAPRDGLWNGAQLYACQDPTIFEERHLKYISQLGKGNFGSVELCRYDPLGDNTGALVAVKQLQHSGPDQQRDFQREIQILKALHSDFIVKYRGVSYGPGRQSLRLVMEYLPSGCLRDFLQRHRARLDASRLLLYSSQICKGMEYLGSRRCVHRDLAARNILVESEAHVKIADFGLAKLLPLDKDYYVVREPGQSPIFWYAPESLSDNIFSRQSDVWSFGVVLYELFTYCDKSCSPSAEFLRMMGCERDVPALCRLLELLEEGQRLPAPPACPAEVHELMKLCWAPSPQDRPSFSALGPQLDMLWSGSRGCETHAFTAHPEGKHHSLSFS

| IC50 [1] [nM] | IC50 [2] [nM] | Compound | IC50 [3] [nM] |
| --- | --- | --- | --- |
| ≤ 50 | ≤ 10 | C=CC(=O)N1CCC[C@@H](Nc2nc(Nc3cc(C)ns3)nc3ccsc23)C1 [Example 82] | – |
| ≤ 50 | ≤ 10 | C=CC(=O)N1CC[C@@H](Nc2nc(Nc3cc(C)ns3)nc3ccoc23)C1 [Example 94] | – |
| ≤ 50 | ≤ 10 | C=CC(=O)N1CC[C@@H](Nc2nc(Nc3cc(C)ns3)nn3cccc23)C1 [Example 137] | 100 to 1000 |
| ≤ 50 | 10 to 100 | C=CC(=O)N1CC(CNc2nc(Nc3cc(C)[nH]n3)nc3ccsc23)C1 [Example 65] | – |
| ≤ 50 | 10 to 100 | C=CC(=O)N1CC[C@@H](Nc2nc(Nc3cc(C)ns3)nc3sccc23)C1 [Example 102] | – |
| ≤ 50 | 10 to 100 | C=CC(=O)N1CC[C@@H](Nc2nc(Nc3cnn(CCN4CCOCC4)c3)nc3ccsc23)C1 [Example 126] | – |
| 50 to 100 | 10 to 100 | C=CC(=O)N1CC[C@@H](Nc2nc(Nc3cnoc3)nc3ccsc23)C1 [Example 78] | – |
| ≤ 50 | 10 to 100 | C=CC(=O)N1CCC[C@@H](Nc2nc(Nc3cccs3)nc3ccsc23)C1 [Example 84] | – |
| ≤ 50 | 10 to 100 | C=CC(=O)N1CC[C@@H](Nc2nc(Nc3cn[nH]c3)nc3ccsc23)C1 [Example 77] | – |
| ≤ 50 | 10 to 100 | C=CC(=O)N1CC[C@@H](N(C)c2nc(Nc3cnn(C)c3)nc3ccsc23)C1 [Example 105, (R)-1-(3-(methyl(2-((1-methyl-1H-pyrazol-4-yl)amino)thieno[3,2-d]pyrimidin-4-yl)amino)pyrrolidin-1-yl)prop-2-en-1-one] | – |
| 50 to 100 | 10 to 100 | C=CC(=O)N1CC(CNc2nc(Nc3cnn(C)c3)nc3sccc23)C1 [Example 99, 1-(3-(((2-((1-methyl-1H-pyrazol-4-yl)amino)thieno[2,3-d]pyrimidin-4-yl)amino)methyl)azetidin-1-yl)prop-2-en-1-one] | – |
| ≤ 50 | 10 to 100 | C=CC(=O)N1CC[C@@H](Nc2nc(Nc3cnn(C(C)C)c3)nc3ccsc23)C1 [Example 119] | – |
| ≤ 50 | ≤ 10 | C=CC(=O)N1CC[C@@H](Nc2nc(Nc3cnn(C4CCOCC4)c3)nc3ccsc23)C1 [Example 125] | – |
| ≤ 50 | 100 to 1000 | C=CC(=O)N1CC(CNc2nc(Nc3cnn(C)c3)nc3ccoc23)C1 [Example 92, 1-(3-(((2-((1-methyl-1H-pyrazol-4-yl)amino)furo[3,2-d]pyrimidin-4-yl)amino)methyl)azetidin-1-yl)prop-2-en-1-one] | – |
| ≤ 50 | ≤ 10 | C=CC(=O)N1CCC[C@@H](Nc2nc(Nc3cnoc3)nc3ccsc23)C1 [Example 83] | – |
| ≤ 50 | ≤ 10 | C=CC(=O)N1CCC[C@@H](Nc2nc(Nc3cc(C)ns3)nc3ccoc23)C1 [Example 96] | – |

| IC50 [1] [nM] | IC50 [2] [nM] | Compound | IC50 [3] [nM] |
| --- | --- | --- | --- |
| ≤ 50 | ≤ 10 | C=CC(=O)N1CC(CNc2nc(Nc3cc(C)ns3)nc3ccsc23)C1 [Example 71] | – |
| ≤ 50 | ≤ 10 | C=CC(=O)N1CCC[C@@H](Nc2nc(Nc3cnn(CC)c3)nc3ccsc23)C1 [Example 127] | – |
| ≤ 50 | 10 to 100 | C=CC(=O)N1CCC[C@@H](Nc2nc(Nc3cnn(CCOC)c3)nc3ccsc23)C1 [Example 131] | – |
| ≤ 50 | ≤ 10 | C=CC(=O)N1CC(CNc2nc(Nc3cnn(C)c3)nc3ccsc23)C1 [Example 61, 1-(3-(((2-((1-methyl-1H-pyrazol-4-yl)amino)thieno[3,2-d]pyrimidin-4-yl)amino)methyl)azetidin-1-yl)prop-2-en-1-one] | – |
| ≤ 50 | 10 to 100 | C=CC(=O)N1CC[C@@H](Nc2nc(Nc3cnn(CCN(C)C)c3)nc3ccsc23)C1 [Example 124] | – |
| 100 to 1000 | 10 to 100 | C=CC(=O)N1CC[C@@H](Nc2nc(Nc3cc(C)no3)nc3ccsc23)C1 [Example 79] | – |
| ≤ 50 | ≤ 10 | C=CC(=O)N1CCC[C@@H](Nc2nc(Nc3cc(C)ns3)nn3cccc23)C1 [Example 134, (R)-1-(3-((2-((3-methyl-isothiazol-5-yl)amino)pyrrolo[2,1-f][1,2,4]triazin-4-yl)amino)piperidin-1-yl)prop-2-en-1-one] | ≤ 100 |
| ≤ 50 | 10 to 100 | C=CC(=O)N1CC(CNc2nc(Nc3cc(C)no3)nc3ccsc23)C1 [Example 69] | – |
| ≤ 50 | 10 to 100 | C=CC(=O)N1CC(CNc2nc(Nc3cnn(COC)c3)nc3ccsc23)C1 [Example 114] | – |
| 50 to 100 | 100 to 1000 | C=CC(=O)N1CC(CNc2nc(Nc3nccs3)nc3ccsc23)C1 [Example 74] | – |
| ≤ 50 | 10 to 100 | C=CC(=O)N1CC[C@@H](Nc2nc(Nc3cnn(C)c3)nn3cccc23)C1 [Example 138] | – |
| ≤ 50 | 10 to 100 | C=CC(=O)N1CC[C@@H](Nc2nc(Nc3cnn(CC)c3)nc3ccsc23)C1 [Example 118] | – |
| ≤ 50 | 10 to 100 | C=CC(=O)N1CCC[C@@H](Nc2nc(Nc3cn[nH]c3)nc3ccsc23)C1 [Example 81] | – |
| ≤ 50 | ≤ 10 | C=CC(=O)N1CC(CNc2nc(Nc3cnn(C(C)C)c3)nc3ccsc23)C1 [Example 108] | – |
| ≤ 50 | 10 to 100 | C=CC(=O)N1CCC[C@@H](Nc2nc(Nc3cnn(C)c3)nn3cccc23)C1 [Example 135] | – |
